From patent US20240059689A1, “PURINE DERIVATIVES AS ANTICANCER AGENTS” (Tango Therapeutics, Inc., priority 2021, published 2024)

How the values were obtained:
USP1-UAF1 = USP1-UAF1 (Homo sapiens, UniProt O94782); test: Ubiquitin Rhodamine assay of USP1-UAF1 activity; format: biochemical
Experimental: Certain compounds of the disclosure were assessed for USP1-UAF1 activity in a Ubiquitin Rhodamine assay as described in Biology Example 1.

MDA-MB-436 = test: Viability assay, BRCA1 mutant cell line MDA-MB-436; format: cell-based; conditions: Homo sapiens, MDA-MB-436, viability, BRCA1 mutant MDA-MB-436; read-out: MDA-MB-436 rel IC50
From the text: (§1) Table 1 also indicates IC50 values in a viability assay for a non-isogenic pair of BRCA1 mutant (column 5-MDA-MB-436) and BRCA1 WT (column 6—HCC1954) cell lines. These values indicate the effect of treatment with compound on cell survival.

HCC1954 = test: Viability assay, BRCA1 WT cell line HCC1954; format: cell-based; conditions: Homo sapiens, HCC1954, viability, read-out: HCC1954 rel IC50
From the text: as §1

monoubiquitinated PCNA = test: AlphaLISA assay measuring monoubiquitinated PCNA in MDA-MB-436; format: cell-based; conditions: Homo sapiens, MDA-MB-436, monoubiquitinated PCNA, read-out: Alpha Lisa IC50
From the text: Table 1 also indicates IC50 values for exemplary compounds in an AlphaLISA assay measuring monoubiquitinated PCNA in a BRCA1 mutant cell line (MDA-MB-436; column 7).

USP1-UAF1, sequence (O94782 whole entry): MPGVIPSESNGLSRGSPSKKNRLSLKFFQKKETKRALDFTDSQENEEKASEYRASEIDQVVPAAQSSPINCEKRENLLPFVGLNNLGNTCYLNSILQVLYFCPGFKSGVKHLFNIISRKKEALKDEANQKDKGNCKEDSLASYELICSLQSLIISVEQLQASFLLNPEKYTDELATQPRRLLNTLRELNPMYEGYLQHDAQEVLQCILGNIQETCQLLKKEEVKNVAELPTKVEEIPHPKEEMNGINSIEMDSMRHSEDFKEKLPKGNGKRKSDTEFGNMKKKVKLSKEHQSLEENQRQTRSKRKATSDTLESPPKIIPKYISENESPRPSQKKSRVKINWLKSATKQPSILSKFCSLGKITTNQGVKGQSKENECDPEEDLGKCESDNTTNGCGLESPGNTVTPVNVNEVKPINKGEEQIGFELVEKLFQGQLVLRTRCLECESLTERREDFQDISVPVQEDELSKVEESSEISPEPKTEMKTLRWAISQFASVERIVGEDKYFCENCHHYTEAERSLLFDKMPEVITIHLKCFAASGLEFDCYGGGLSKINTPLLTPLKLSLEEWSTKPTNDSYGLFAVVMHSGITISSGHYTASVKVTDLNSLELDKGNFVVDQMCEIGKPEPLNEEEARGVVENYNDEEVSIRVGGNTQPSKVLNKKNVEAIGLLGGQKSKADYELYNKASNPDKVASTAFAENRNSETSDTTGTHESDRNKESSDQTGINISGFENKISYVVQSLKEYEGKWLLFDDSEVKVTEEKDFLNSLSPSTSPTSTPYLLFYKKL
USP1-UAF1, sequence (Q8TAF3 whole entry partner): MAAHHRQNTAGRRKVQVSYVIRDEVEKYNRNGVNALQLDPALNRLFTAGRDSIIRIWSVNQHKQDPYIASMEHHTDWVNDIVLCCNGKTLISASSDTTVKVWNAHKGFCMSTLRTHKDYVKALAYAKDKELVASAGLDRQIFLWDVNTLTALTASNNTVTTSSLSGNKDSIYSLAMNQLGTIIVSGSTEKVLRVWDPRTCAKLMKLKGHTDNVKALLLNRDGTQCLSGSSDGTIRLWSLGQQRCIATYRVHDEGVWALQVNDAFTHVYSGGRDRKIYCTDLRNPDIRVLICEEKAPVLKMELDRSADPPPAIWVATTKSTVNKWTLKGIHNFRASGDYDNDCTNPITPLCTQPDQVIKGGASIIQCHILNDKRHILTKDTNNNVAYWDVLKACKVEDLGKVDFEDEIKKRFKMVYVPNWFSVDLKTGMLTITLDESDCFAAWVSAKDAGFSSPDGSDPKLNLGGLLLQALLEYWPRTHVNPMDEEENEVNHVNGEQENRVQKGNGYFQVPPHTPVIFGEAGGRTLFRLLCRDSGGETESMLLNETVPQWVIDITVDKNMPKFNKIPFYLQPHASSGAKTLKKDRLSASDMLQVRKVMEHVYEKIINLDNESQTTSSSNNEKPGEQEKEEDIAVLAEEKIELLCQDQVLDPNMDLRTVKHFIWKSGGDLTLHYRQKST

SMILES	IC50 (USP1-UAF1) [nM]	IC50 (MDA-MB-436) [nM]	IC50 (HCC1954) [nM]	IC50 (monoubiquitinated PCNA) [nM]
COc1nc(C#N)ccc1-c1ncc2c(n1)n(Cc1ccc(-c3nc(C(F)(F)F)cn3C)cc1)c(=N)n2C [Example T-085]	100 to 10000	250 to 10000	250 to 10000	250 to 10000
COc1ncccc1-c1ncc2c(n1)n(Cc1ccc(-c3nc(C(F)(F)F)cn3C)cc1)c(=N)n2C [Example T-090]	100 to 10000	250 to 10000	≥ 10000	250 to 10000
COc1ncccc1-c1ncc2c(n1)n(Cc1ccc(-c3nc(C(F)(F)F)cn3CCF)cc1)c(=N)n2C [Example T-093]	100 to 10000	250 to 10000	≥ 10000	250 to 10000
COc1ncnc(C2CC2)c1-c1ncc2c(n1)n(Cc1ccc(-n3nc(C(F)(F)F)cc3C)cc1)c(=N)n2CC(F)(F)F [Example T-098, 2-(4-cyclopropyl-6-methoxy-pyrimidin-5-yl)-9-[[4-[5-methyl-3-(trifluoromethyl)pyrazol-1-yl]phenyl]methyl]-7-(2,2,2-trifluoroethyl)purin-8-imine]	30 to 100	< 100	≥ 10000	100 to 250
CC(C)c1ccccc1-c1ncc2c(n1)n(Cc1ccc(-c3nc(C(F)(F)F)cn3C3CN(C)C3)cc1)c(=N)n2C [Example T-099, 2-(2-isopropylphenyl)-7-methyl-9-(4-(1-(1-methylazetidin-3-yl)-4-(trifluoromethyl)-1H-imidazol-2-yl)benzyl)-7H-purin-8(9H)-imine]	100 to 10000	< 100	≥ 10000	100 to 250
COc1ncnc(C2CC2)c1-c1ncc2c(n1)n(Cc1ccc(-n3nc(C(F)F)cc3OC)cc1)c(=N)n2CC(F)(F)F [Example T-100, 2-(4-cyclopropyl-6-methoxy-pyrimidin-5-yl)-9-[[4-[3-(difluoromethyl)-5-methoxy-pyrazol-1-yl]phenyl]methyl]-7-(2,2,2-trifluoroethyl)purin-8-imine]	100 to 10000	100 to 250	≥ 10000	100 to 250
COc1nc(C)nc(C2CC2)c1-c1ncc2c(n1)n(Cc1ccc(-c3nc(C(F)(F)F)cn3C)cc1)c(=N)n2CC(F)(F)F [Example T-102, 2-(4-cyclopropyl-6-methoxy-2-methyl-pyrimidin-5-yl)-9-[[4-[1-methyl-4-(trifluoromethyl)imidazol-2-yl]phenyl]methyl]-7-(2,2,2-trifluoroethyl)purin-8-imine]	100 to 10000	100 to 250	≥ 10000	250 to 10000
Cn1cc(C(F)(F)F)nc1-c1ccc(Cn2c(=N)n(C)c3cnc(-c4c(C5CC5)ncnc4C(F)(F)F)nc32)cc1 [Example T-103, 2-(4-cyclopropyl-6-(trifluoromethyl)pyrimidin-5-yl)-7-methyl-9-(4-(1-methyl-4-(trifluoromethyl)-1H-imidazol-2-yl)benzyl)-7H-purin-8(9H)-imine]	30 to 100	100 to 250	≥ 10000	100 to 250
COc1ncnc(C2CC2)c1-c1ncc2c(n1)n(Cc1ccc(-c3nc(C(F)(F)F)oc3C)cc1)c(=N)n2CC(F)(F)F [Example T-104, 2-(4-cyclopropyl-6-methoxy-pyrimidin-5-yl)-9-[[4-[5-methyl-2-(trifluoromethyl)oxazol-4-yl]phenyl]methyl]-7-(2,2,2-trifluoroethyl)purin-8-imine]	100 to 10000	100 to 250	≥ 10000	250 to 10000
[2H]C([2H])([2H])Oc1ncnc(C2CC2)c1-c1ncc2c(n1)n(Cc1ccc(-c3nc(C(F)(F)F)cn3C)c(CC)c1)c(=N)n2CC(F)(F)F [Example T-105, 2-[4-cyclopropyl-6-(trideuteriomethoxy)pyrimidin-5-yl]-9-[[3-ethyl-4-[1-methyl-4-(trifluoromethyl)imidazol-2-yl]phenyl]methyl]-7-(2,2,2-trifluoroethyl)purin-8-imine]	100 to 10000	250 to 10000	≥ 10000	250 to 10000
COc1ncnc(C2CC2)c1-c1ncc2c(n1)n(Cc1ccc(-c3nc(C(F)(F)F)cn3C)c(C)c1)c(=N)n2CC(F)(F)F [Example T-107, 2-(4-cyclopropyl-6-methoxy-pyrimidin-5-yl)-9-[[3-methyl-4-[1-methyl-4-(trifluoromethyl)imidazol-2-yl]phenyl]methyl]-7-(2,2,2-trifluoroethyl)purin-8-imine]	100 to 10000	100 to 250	≥ 10000	100 to 250
COc1ncnc(C2CC2)c1-c1ncc2c(n1)n(Cc1ccc(-c3nc(C(F)(F)F)cn3C(C)C)cc1)c(=N)n2CC(F)(F)F [Example T-108]	30 to 100	< 100	≥ 10000	< 100
COc1ncnc(OC)c1-c1ncc2c(n1)n(Cc1ccc(-c3nc(C(F)(F)F)cn3C)cc1)c(=N)n2CC(F)(F)F [Example T-110, 2-(4,6-dimethoxypyrimidin-5-yl)-9-[[4-[1-methyl-4-(trifluoromethyl)imidazol-2-yl]phenyl]methyl]-7-(2,2,2-trifluoroethyl)purin-8-imine]	30 to 100	100 to 250	≥ 10000	250 to 10000
COc1ncnc(C2CC2(F)F)c1-c1ncc2c(n1)n(Cc1ccc(-c3nc(C(F)(F)F)cn3C)cc1)c(=N)n2C (stereo not drawn) [Example T-111, 2-(4-(2,2-difluorocyclopropyl)-6-methoxypyrimidin-5-yl)-7-methyl-9-(4-(1-methyl-4-(trifluoromethyl)-1H-imidazol-2-yl)benzyl)-7H-purin-8(9H)-imine]	30 to 100	< 100	≥ 10000	< 100
Cn1cc(C(F)(F)F)nc1-c1ccc(Cn2c(=N)n(CC(F)(F)F)c3cnc(-c4c(OC(F)(F)F)ccnc4C4CC4)nc32)cc1 [Example T-112, 2-[2-cyclopropyl-4-(trifluoromethoxy)-3-pyridyl]-9-[[4-[1-methyl-4-(trifluoromethyl)imidazol-2-yl]phenyl]methyl]-7-(2,2,2-trifluoroethyl)purin-8-imine]	30 to 100	< 100	≥ 10000	100 to 250

Next, values leading:

IC50 (USP1-UAF1) [nM]	IC50 (MDA-MB-436) [nM]	IC50 (HCC1954) [nM]	IC50 (monoubiquitinated PCNA) [nM]	SMILES
< 30	< 100	≥ 10000	< 100	Cn1cc(C(F)(F)F)nc1-c1ccc(Cn2c(=N)n(C)c3cnc(-c4cccnc4OC(F)F)nc32)cc1 [Example T-082, 2-[2-(difluoromethoxy)-3-pyridyl]-7-methyl-9-[[4-[1-methyl-4-(trifluoromethyl)imidazol-2-yl]phenyl]methyl]purin-8-imine]
< 30	100 to 250	250 to 10000	100 to 250	CC(C)c1ccccc1-c1nc(C(F)(F)F)c2c(n1)n(Cc1ccc(-c3nc(C(F)(F)F)cn3C)cc1)c(=N)n2C [Example T-084]
< 30	< 100	250 to 10000	< 100	Cn1cc(C(F)(F)F)nc1-c1ccc(Cn2c(=N)n(C)c3cnc(-c4ccccc4C4CC4)nc32)cc1 [Example T-087, 2-(2-cyclopropylphenyl)-7-methyl-9-[[4-[1-methyl-4-(trifluoromethyl)imidazol-2-yl]phenyl]methyl]purin-8-imine]
30 to 100	250 to 10000	250 to 10000	250 to 10000	Cc1cc(Cn2c(=N)n(C)c3cnc(-c4ccccc4C(F)(F)F)nc32)ccc1-c1nc(C(F)(F)F)c[nH]1 [Example T-092]
< 30	< 100	≥ 10000	< 100	CCOc1cc(C(F)(F)F)nn1-c1ccc(Cn2c(=N)n(C)c3cnc(-c4c(OC)ncnc4C4CC4)nc32)cc1 [Example T-094]
30 to 100	< 100	≥ 10000	< 100	COc1ncnc(C2CC2)c1-c1ncc2c(n1)n(Cc1ccc(-c3nc(C(F)(F)F)cn3C)cc1)c(=N)n2CC(F)(F)F [Example T-095, 2-(4-cyclopropyl-6-methoxy-pyrimidin-5-yl)-9-[[4-[1-methyl-4-(trifluoromethyl)imidazol-2-yl]phenyl]methyl]-7-(2,2,2-trifluoroethyl)purin-8-imine]
30 to 100	100 to 250	≥ 10000	250 to 10000	COc1ncccc1-c1ncc2c(n1)n(Cc1ccc(-c3nc(C(F)(F)F)cn3C)cc1)c(=N)n2CC(F)(F)F [Example T-097, 2-(2-methoxy-3-pyridyl)-9-[[4-[1-methyl-4-(trifluoromethyl)imidazol-2-yl]phenyl]methyl]-7-(2,2,2-trifluoroethyl)purin-8-imine]
< 30	< 100	≥ 10000	< 100	CCn1cc(C(F)(F)F)nc1-c1ccc([C@@H](C)n2c(=N)n(CC(F)(F)F)c3cnc(-c4c(OC)ncnc4C4CC4)nc32)cc1 [Example T-106, (R)-2-(4-cyclopropyl-6-methoxypyrimidin-5-yl)-9-(1-(4-(1-ethyl-4-(trifluoromethyl)-1H-imidazol-2-yl)phenyl)ethyl)-7-(2,2,2-trifluoroethyl)-7H-purin-8(9H)-imine]
< 30	< 100	≥ 10000	< 100	COc1ncnc(C2CC2)c1-c1ncc2c(n1)n([C@H](C)c1ccc(-n3nc(C(F)(F)F)cc3OC)cc1)c(=N)n2CC(F)(F)F [Example T-109, 2-(4-cyclopropyl-6-methoxy-pyrimidin-5-yl)-9-[(1R)-1-[4-[5-methoxy-3-(trifluoromethyl)pyrazol-1-yl]phenyl]ethyl]-7-(2,2,2-trifluoroethyl)purin-8-imine]
